From ChEMBL document CHEMBL1158273, “New pyranocoumarins isolated from Calophyllum lanigerum and Calophyllum teysmannii” (J Nat Prod, 1996)
One block for each compound: values may come before it. Active and inactive are the calls of the source. The rule behind the calls is not given here.

Tests used:
[1] = test system: H9; assay: Cytotoxicity against human H9 cells; format: cell-based
[2] = test system: Human immunodeficiency virus 1; assay: Antiviral activity against HIV1 infected in human H9 cells assessed as effect on virus-induced cytopathic effect by tetrazolium/formazan assay; format: functional, organism-based; details: for EC50: Human immunodeficiency virus 1, H9
[3] = Therapeutic index, ratio of IC50 for human H9 cells to EC50 for HIV1; format: cell-based; details: read-out: Ratio IC50/EC50

SMILES: C/C=C(\C)C(=O)c1c(OC)cc(OC)c2c(CCC)cc(=O)oc12
- IC50 [1]: 1 µM
- Activity [2]: inactive

SMILES: CCCC1CC(=O)Oc2c(C(=O)C(C)C(C)O)c(O)c3c(c21)OC(C)(C)C=C3 (centres undefined) [CALANOLIDE E2]
- IC50 [1]: 2.5 µM
- Activity [2]: inactive

- EC50 [2]: 2.84 µM
SMILES: CCCc1cc(=O)oc2c3c(c4c(c12)OC(C)(C)C=C4)O[C@@H](C)[C@@H](C)[C@@H]3O [CALANOLIDE F]
- selectivity ratio [3]: 4.5
- IC50 [1]: 12.7 µM

SMILES: CC1CC(=O)Oc2c(C(=O)C(C)C(C)O)c(O)c3c(c21)OC(C)(C)C=C3 (centres undefined) [CORDATOLIDE E]
- IC50 [1]: 14 µM
- Activity [2]: inactive

- EC50 [2]: 0.22 µM
SMILES: CCCc1cc(=O)oc2c3c(c4c(c12)OC(C)(C)C=C4)O[C@@H](C)[C@H](C)[C@@H]3O [COSTATOLIDE]
- selectivity ratio [3]: 44.5
- IC50 [1]: 9.8 µM

SMILES: Cc1cc(=O)oc2c3c(c4c(c12)O[C@@H](C)[C@@H](C)[C@H]4O)OC(C)(C)C=C3 [PSEUDOCARDATOLIDE C]
- IC50 [1]: 2.6 µM
- Activity [2]: inactive
